Experimental data published in patent US12593845B2 (priority 2019, dated 2026).

What was measured:
Meloidogyne incognita = assay: Efficacy against Meloidogyne incognita; assay type: in vivo; settings: 96 h, second-instar larvae (L2), 40 μL of 125 ppm drug solution added to 160 μL suspension per well, 20° C., 4 days, read-out: nematode mortality rate
Method: (§1) 5 parts by weight of the dihydropyrimidine compound of the present invention, 93.5 parts by weight of N,N-dimethylformamide, and 1.5 parts by weight of polyoxyethylene sorbitan monolaurate (TWEEN® 20) were mixed and dissolved to obtain an emulsion (I) including 5% of an active ingredient.
A suspension containing about 50/0.16 mL second-instar larvae (L2) of Meloidogyne incognita was poured into a 96-well microplate at 160 μL per well. Then, a drug solution prepared by adding water to the emulsion (I) so as to have a concentration of the dihydropyrimidine compound of 125 ppm was poured at 40 μL per well. The plate was left to stand under a 20° C. condition for 4 days.
Mortality was determined, and the nematode mortality rate was calculated. […] The test repeated twice.

[1] = system: wheat powdery mildew pathogen (Erysiphe graminis f. sp. tritici); assay: Wheat powdery mildew seed treatment test; assay type: in vivo; settings: Blumeria graminis, 168 h; seed treatment 100 g/100 kg wheat seeds (Chihoku); inoculation after 8 to 10 days; lesion area ratio 7 days after inoculation
How it was run: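 Wheat seeds (cv. Chihoku) were treated with a 5% emulsion at 100 g compound/100 kg seed, sown, and inoculated with conidiospores after 8 to 10 days. Plants were kept in a greenhouse at 20 °C. Lesion area was scored visually 7 days post-inoculation, and control value was computed relative to untreated inoculated seedlings.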

[2] = system: wheat brown rust pathogen (Puccinia recondita); assay: Wheat brown rust control test; assay type: in vivo; settings: 288 h, 125 ppm drug solution sprayed onto wheat seedlings (Norin 61), lesion area ratio 12 days after inoculation
Method: as §1
(§2) The control value was calculated by the following expression. Control value (%)=100−{lesion area ratio in treated group/lesion area ratio in untreated group}×100 [Expression 1]
Water was added to the emulsion (I) such that the concentration of the dihydropyrimidine compound reached 125 ppm to dissolve the emulsion, and a drug solution was obtained. Subsequently, the drug solution was sprayed onto wheat seedlings (variety: “Norin 61”, leaf stage: 1 to 2) cultivated in seedling pots. After air drying, uredospores of a wheat brown rust pathogen (Puccinia recondita) were sprinkled on wheat seedlings sprayed with the drug solution for inoculation (treated group). As a control, wheat seedlings that were not sprayed with the drug solution were inoculated in the same manner as described above (untreated group). The seedlings were left to stand in a greenhouse at 20° C.
On the 12 days after the inoculation, the leaves of the wheat seedlings were visually observed to determine the lesion area ratio, and the control value was calculated.

Aspergillus niger = assay: Antimicrobial test against Aspergillus niger; assay type: cell-based; settings: 96 h, Vogel medium, 25° C., 4 days in the dark, turbidity at 405 nm, read-out: growth inhibition rate
How it was run: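 Growth inhibition (%) derived from 405 nm turbidity versus untreated control. Compound, dissolved in DMSO, tested at 25 ppm on spores in Vogel medium; cultures kept dark, 25° C., 4 days.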

[3] = system: wheat powdery mildew pathogen (Erysiphe graminis f. sp. tritici); assay: Wheat powdery mildew control test; assay type: in vivo; settings: Blumeria graminis, 144 h; 125 ppm drug solution sprayed onto wheat seedlings (Chihoku); lesion area ratio 6 days after inoculation
How it was run: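 Compound formulated as a 5% DMF/Tween 20 emulsion was diluted in water to 125 ppm and sprayed onto 1-2-leaf wheat seedlings (cv. Chihoku). Once dry, seedlings were inoculated with Erysiphe graminis f. sp. tritici conidia and kept in a greenhouse at 20 °C. Lesion area ratio was scored visually 6 days later, giving control value (%) relative to untreated inoculated plants.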

[4] = system: apple scab pathogen (Venturia inaequalis); assay: Apple scab control test; assay type: in vivo; settings: 336 h, 125 ppm drug solution sprayed onto apple seedlings (Orin), lesion area ratio 2 weeks after inoculation
How it was run: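 Compound emulsion diluted in water to 125 ppm and sprayed on 3-4 leaf 'Orin' apple seedlings, which were inoculated with V. inaequalis conidiospores after drying and held humidified at 20° C, 12 h light/dark. Lesion area ratio scored 2 weeks post-inoculation; control value computed relative to unsprayed inoculated plants.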

[5] = system: wheat powdery mildew pathogen (Erysiphe graminis f. sp. tritici); assay: Wheat powdery mildew soil irrigation treatment test; assay type: in vivo; settings: Blumeria graminis, 168 h; soil irrigation with 10 ml of 100 ppm drug solution per pot, wheat (Chihoku); inoculation after 8 to 10 days; lesion area ratio 7 days after inoculation
Method: as §1, §2
Pots (5.5 cm×5.5 cm) in which wheat seeds (variety: “Chihoku”) were disseminated were irrigated with 10 ml of a drug solution prepared by adding water to the emulsion (I) so as to have a concentration of the dihydropyrimidine compound of 100 ppm. After 8 to 10 days, conidiospores of a wheat powdery mildew pathogen (Erysiphe graminis f. sp. tritici) were sprinkled thereon for inoculation (treated group). As a control, wheat seedlings that were not treated with the drug were inoculated in the same manner as described above (untreated group). The seedlings were left to stand in a greenhouse at 20° C.
On the 7 days after the inoculation, the leaves of the wheat seedlings were visually observed to determine the lesion area ratio, and the control value was calculated.

[6] = system: cucumber gray mold pathogen (Botrytis cinerea); assay: Cucumber gray mold control test; assay type: in vivo; settings: 125 ppm drug solution sprayed onto cucumber seedlings (cotyledon stage); lesion area ratio 4 days after inoculation
Method: as §1, §2
Water was added to the emulsion (I) such that the concentration of the dihydropyrimidine compound reached 125 ppm to dissolve the emulsion, and a drug solution was obtained. Subsequently, the drug solution was sprayed onto cucumber seedlings (variety: “creeping” type, cotyledon stage) cultivated in seedling pots. After air drying, a suspension of conidiospores of a cucumber gray mold pathogen (Botrytis cinerea) was dropped thereon for inoculation (treated group). As a control, cucumber seedlings that were not sprayed with the drug solution were inoculated by dropping in the same manner as described above (untreated group). The seedlings were left to stand in a humidified room at 20° C.
On the 4 days after the inoculation, the leaves of the cucumber seedlings were visually observed to determine the lesion area ratio, and the control value was calculated.

| Compound | mortality at 125 ppm (Meloidogyne incognita) [%] | pest or weed control at 100 g/100 kg seed [1] [%] | pest or weed control at 125 ppm [2] [%] | inhibition at 25 ppm (Aspergillus niger) [%] | pest or weed control at 125 ppm [3] [%] | pest or weed control at 125 ppm [4] [%] | pest or weed control at 100 ppm [5] [%] | Control value [6] [%] |
| --- | --- | --- | --- | --- | --- | --- | --- | --- |
| CON=C(C)c1cn(CC(O)c2cc(F)ccc2OC)c(=O)n(C(C)C(=O)NC(C)C)c1=O (centres unmarked) [A-28] | ≥ 60 | – | – | – | – | – | – | – |
| COc1ccc(F)cc1C(Cn1cc(C=NOC(C)C)c(=O)n(C[C@H](C)NC(=O)C(C)C)c1=O)OCCC#N (some centres unmarked) [A-60] | – | ≥ 75 | ≥ 75 | ≥ 50 | ≥ 75 | ≥ 75 | ≥ 75 | – |
| C=C1CCN(C(=O)C(C)n2c(=O)c(C=NOC(C)C)cn(CC(OCCC#N)c3cc(F)ccc3OC)c2=O)CC1 (centres unmarked) [A-64] | ≥ 60 | – | ≥ 75 | – | – | – | – | – |
| COc1ccc(F)cc1C(O)Cn1cc(/C(C)=N/OC(C)C)c(=O)n(C[C@H](C)NC(=O)C(C)C)c1=O (stereo partly drawn) [A-75, N-((2S)-1-(3-(2-(5-fluoro-2-methoxyphenyl)-2-hydroxyethyl)-5-((E)-1-(isopropoxyimino)ethyl)-2,6-dioxo-3,6-dihydropyrimidin-1(2H)-yl)propan-2-yl)isobutyramide] | – | ≥ 75 | – | ≥ 50 | ≥ 75 | ≥ 75 | ≥ 75 | ≥ 75 |
| COc1ccc(F)cc1C(O)Cn1cc(C=NOC(C)C)c(=O)n(C[C@H](C)NC(=O)C(C)C)c1=O (some centres unmarked) [A-76] | – | ≥ 75 | ≥ 75 | ≥ 50 | ≥ 75 | ≥ 75 | ≥ 75 | – |
| CC[C@@H](Cn1c(=O)c(/C(C)=N/OC(C)C)cn(CC(O)c2ccccc2OC)c1=O)NC(=O)C(C)C (some centres unmarked) [C-92] | ≥ 60 | – | – | – | – | – | – | – |
| COc1ccc(Br)cc1C(O)Cn1cc(/C(C)=N/OC(C)C)c(=O)n(C[C@H](C)NC(=O)C(C)C)c1=O (some centres unmarked) [C-145] | ≥ 60 | – | – | – | – | – | – | – |
